Assay results taken from US20050124665A1, “Pharmaceutical compositions” (priority 2001, published 2005).

Tests used:
[1] = tested on: Sendai virus; experiment: Effect on the replication of Sendai virus (virus yield by HAU titration in 37RC cells); assay type: cell-based; details: Respirovirus muris, in Primates; at 24 hours after infection; monkey kidney 37RC cells infected with SV (5 HAU/10^5 cells); virus yield in supernatant by HAU titration; read-out: ID50 (the 50% inhibitory dose/concentration)
Procedure: Methods: Monkey kidney 37RC cells were grown at 37° C. under the conditions described in Example 6 for T cells. The parainfluenza Sendai virus (SV) was grown in the allantoic cavity of 10-day-old embroynated eggs. Viral titre was expressed in haemagglutinating units (HAU) per ml; haemagglutin titration was done according to standard procedures using human 0 Rh+ erythrocytes, as described in C. Amici et al. (J. Virol. 68: 6890-6899, 1994). Confluent monolayers of 37RC cells were infected with SV virus (5 HAU/10^5 cells) for 1 h at 37° C., and then treated with different concentrations of test compounds. Virus yield at 24 hours after infection was determined in the supernatant of infected cells by HAU titration. The results from representative experiments are shown for CTC-73, 74, 83, 84 and 85 (as identified above) in FIGS. 1a, 2a, 3a, 4a and 5a, respectively.

[2] = molecular target: T1, HSF1 (Homo sapiens, UniProt Q00613); details: cited from earlier work
T1 sequence (Q00613 1-529): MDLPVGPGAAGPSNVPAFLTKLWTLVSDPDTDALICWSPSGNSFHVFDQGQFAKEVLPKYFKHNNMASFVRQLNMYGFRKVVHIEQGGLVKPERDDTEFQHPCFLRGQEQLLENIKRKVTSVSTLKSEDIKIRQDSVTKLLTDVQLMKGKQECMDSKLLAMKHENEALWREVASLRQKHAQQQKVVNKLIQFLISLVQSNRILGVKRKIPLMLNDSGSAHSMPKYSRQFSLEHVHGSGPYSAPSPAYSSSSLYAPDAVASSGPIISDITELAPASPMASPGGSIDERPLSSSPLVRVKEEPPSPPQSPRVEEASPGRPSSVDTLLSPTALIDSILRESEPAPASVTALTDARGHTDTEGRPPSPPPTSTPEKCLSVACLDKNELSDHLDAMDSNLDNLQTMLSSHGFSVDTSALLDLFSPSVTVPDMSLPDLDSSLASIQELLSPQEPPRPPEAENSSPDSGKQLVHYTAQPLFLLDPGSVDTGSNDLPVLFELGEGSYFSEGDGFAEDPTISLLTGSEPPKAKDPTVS

[3] = tested on: NF-κB; details: at the same concentration (125-500 μM); cited from earlier work

Structure (SMILES) | IC50 [1] [µM] | Concentration able to activate HSF1 and trigger synthesis of HSP70 [2] [µM] | Block of NF-κB activation [3]
CCCCCC/C=C\CC1CC=CC1=O (stereo not drawn) [CTC-83, ((Z)-5-Non-2-enyl)-cyclopent-2-enone] | 10 | – | –
O=C1C=CCC1 [cyclopent-2-en-1-one] | – | 125 to 500 | able to block NF-κB activation

Now from value to molecule, other results behind:

IC50 [1] [µM] | Structure (SMILES) | Concentration able to activate HSF1 and trigger synthesis of HSP70 [2] [µM] | Block of NF-κB activation [3]
1 | CCCC/C=C\CC1CC=CC1=O (stereo not drawn) [CTC-74, ((Z)-5-Hept-2-enyl)-cyclopent-2-enone] | – | –
7 | CCCCCCCCC/C=C\CC1CC=CC1=O (stereo not drawn) [CTC-84, ((Z)-5-Dodec-2-enyl)-cyclopent-2-enone] | – | –
10 | CCCCCCCCC/C=C/CC1CC=CC1=O (stereo not drawn) [CTC-85, ((E)-5-Dodec-2-enyl)-cyclopent-2-enone] | – | –
